Laboratory results reported in patent publication US12187728B2 (Raze Therapeutics, Inc., priority 2015, dated 2025).

Target: T1, Human MTHFD2 (Homo sapiens, UniProt P13995)
T1 construct: residues 36-350 in Uniport ID P13995; His6 (N); made in house; host or cells: E. coli
T1 sequence (P13995 36-350): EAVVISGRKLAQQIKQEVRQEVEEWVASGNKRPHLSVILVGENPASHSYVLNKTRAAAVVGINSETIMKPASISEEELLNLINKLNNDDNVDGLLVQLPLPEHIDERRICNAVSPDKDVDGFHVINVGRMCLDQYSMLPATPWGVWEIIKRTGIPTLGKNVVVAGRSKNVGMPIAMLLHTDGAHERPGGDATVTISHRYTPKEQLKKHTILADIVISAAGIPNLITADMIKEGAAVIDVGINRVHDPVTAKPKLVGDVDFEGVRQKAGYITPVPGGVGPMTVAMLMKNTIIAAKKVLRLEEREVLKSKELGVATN
Experiment: MTHFD2 Activity Assay (dehydrogenase activity, diaphorase/resazurin coupled fluorescence)
Format: biochemical
Conditions: inhibitory activity (IC50 and/or binding constant); 0.2 nM MTHFD2, 11 concentrations
Outline: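 His6-tagged MTHFD2 (res. 36-350), E. coli-expressed, at 0.2 nM preincubated with compound 15 min in Hepes pH 8.0/MgCl2/KH2PO4 buffer; 70 μM CH2-THF, 1 mM NAD+ added with resazurin/diaphorase, 30 min, EDTA stop. Resorufin fluorescence (ex 525/em 598); IC50 from 11-point 4-parameter fit.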

| Structure (SMILES) | IC50 |
| --- | --- |
| Cn1c(Nc2cccc(C(=O)O)c2)nc2c1c(=O)n(Cc1cc3c(Cl)cccc3[nH]1)c(=O)n2C [Example 346, 3-[[1-[(4-chloro-1H-indol-2-yl)methyl]-3,7-dimethyl-2,6-dioxo-purin-8-yl]amino]benzoic acid] | 10 to 1000 nM |
| Cn1c(C(N)C2CC2)nc2c1c(=O)n(Cc1cc3c(Cl)cccc3[nH]1)c(=O)n2C (centres unmarked) [Example 444, 8-[amino(cyclopropyl)methyl]-1-[(4-chloro-1H-indol-2-yl)methyl]-3,7-dimethyl-purine-2,6-dione] | 10 to 1000 nM |
| Cc1c(Cn2c(=O)c3c(nc(Nc4ccncc4)n3C)n(C)c2=O)[nH]c2ccccc12 [Example 340, 3,7-dimethyl-1-((3-methyl-1H-indol-2-yl)methyl)-8-(pyridin-4-ylamino)-1H-purine-2,6(3H,7H)-dione] | 10 to 1000 nM |
| Cn1c(C(N)c2ccccn2)nc2c1c(=O)n(Cc1cc3c(Cl)cccc3[nH]1)c(=O)n2C (centres unmarked) [Example 473, 8-(amino(pyridin-2-yl)methyl)-1-((4-chloro-1H-indol-2-yl)methyl)-3,7-dimethyl-1H-purine-2,6(3H,7H)-dione] | 10 to 1000 nM |
| Cn1c(Cn2c(=O)c3c(nc(N4CCC(O)CC4)n3C)n(C)c2=O)cc2cc(Cl)ccc21 [Example 196, 1-((5-chloro-1-methyl-1H-indol-2-yl)methyl)-8-(4-hydroxypiperidin-1-yl)-3,7-dimethyl-1H-purine-2,6(3H,7H)-dione] | 10 to 1000 nM |
| Cn1c(NC2CCCC(C(=O)O)C2)nc2c1c(=O)n(Cc1ccc(C(F)(F)F)cc1)c(=O)n2C (racemic) [Example 115, (±)-3-(3,7-dimethyl-2,6-dioxo-1-(4-(trifluoromethyl)benzyl)-2,3,6,7-tetrahydro-1H-purin-8-ylamino)cyclohexanecarboxylic acid] | 1000 to 5000 nM |
| Cn1c(Nc2ccc(C(N)=O)nc2)nc2c1c(=O)n(Cc1cc3c(Cl)cccc3[nH]1)c(=O)n2C [Example 409, 5-(1-((4-chloro-1H-indol-2-yl)methyl)-3,7-dimethyl-2,6-dioxo-2,3,6,7-tetrahydro-1H-purin-8-ylamino)picolinamide] | 10 to 1000 nM |
| Cn1c(NC2CCCC(CO)C2)nc2c1c(=O)n(Cc1ccc(Cl)c(Cl)c1)c(=O)n2C (racemic) [Example 254, (±)-1-(3,4-dichlorobenzyl)-8-(3-(hydroxymethyl)cyclohexylamino)-3,7-dimethyl-1H-purine-2,6(3H,7H)-dione] | 10 to 1000 nM |
| Cn1c(Nc2cccc(C3CC(O)C3)n2)nc2c1c(=O)n(Cc1ccc(Cl)c(Cl)c1)c(=O)n2C (centres unmarked) [Example 352, 1-(3,4-diclorobenzyl)-8-(6-(3-hydroxycyclobutyl)pyridine-2-ylamino)-3,7-dimethyl-1H-purine-2,6(3H,7H)-dione] | 1000 to 5000 nM |
| CNC(=O)CCc1cccc(Nc2nc3c(c(=O)n(Cc4cc5c(Cl)cccc5[nH]4)c(=O)n3C)n2C)n1 [Example 330, 3-(6-(1-((4-chloro-1H-indol-2-yl)methyl)-3,7-dimethyl-2,6-dioxo-2,3,6,7-tetrahydro-1H-purin-8-ylamino)pyridin-2-yl)-N-methylpropanamide] | 10 to 1000 nM |
| Cn1c(Nc2cc[nH]c(=O)n2)nc2c1c(=O)n(Cc1cc3ccccc3[nH]1)c(=O)n2C [Example 189, 1-((1H-indol-2-yl)methyl)-3,7-dimethyl-8-(2-oxo-1,2-dihydropyrimidin-4-ylamino)-1H-purine-2,6(3H,7H)-dione] | 10 to 1000 nM |
| Cn1c(Nc2ccnc(C3CC(C(N)=O)C3)c2)nc2c1c(=O)n(Cc1ccc(Cl)c(Cl)c1)c(=O)n2C (centres unmarked) [Example 319, 3-(4-(1-(3,4-dichlorobenzyl)-3,7-dimethyl-2,6-dioxo-2,3,6,7-tetrahydro-1H-purin-8-ylamino)pyridin-2-yl)cyclobutanecarboxamide] | 10 to 1000 nM |
| Cn1c(Nc2cccc(CCC(=O)O)n2)nc2c1c(=O)n(Cc1cc3c(Cl)cccc3[nH]1)c(=O)n2C [Example 294, 3-(6-(1-((4-chloro-1H-indol-2-yl)methyl)-3,7-dimethyl-2,6-dioxo-2,3,6,7-tetrahydro-1H-purin-8-ylamino)pyridin-2-yl)propanoic acid] | 10 to 1000 nM |
| Cn1c(N[C@H]2CC[C@@H](C(=O)O)CC2)nc2c1c(=O)n(Cc1ccc(Cl)c(Cl)c1)c(=O)n2C [Example 264, (±)-(cis)-4-((1-(3,4-dichlorobenzyl)-3,7-dimethyl-2,6-dioxo-2,3,6,7-tetrahydro-1H-purin-8-yl)amino)cyclohexanecarboxylic acid] | 10 to 1000 nM |
| Cc1ccc2[nH]c(Cn3c(=O)c4c(nc(Nc5ccncc5)n4C)n(C)c3=O)cc2c1 [Example 181, 3,7-dimethyl-1-((5-methyl-1H-indol-2-yl)methyl)-8-(pyridin-4-ylamino)-1H-purine-2,6(3H,7H)-dione] | 10 to 1000 nM |
| Cn1c(-n2ncnc2N)nc2c1c(=O)n(Cc1ccc(Cl)c(Cl)c1)c(=O)n2C [Example 143, 8-(5-amino-1H-1,2,4-triazol-1-yl)-1-(3,4-dichlorobenzyl)-3,7-dimethyl-1H-purine-2,6(3H,7H)-dione] | 1000 to 5000 nM |
| Cn1c(C2CCNC2)nc2c1c(=O)n(Cc1[nH]c3cccc(Cl)c3c1Cl)c(=O)n2C (centres unmarked) [Example 423, 1-((3,4-dichloro-1H-indol-2-yl)methyl)-3,7-dimethyl-8-(pyrrolidin-3-yl)-1H-purine-2,6(3H,7H)-dione] | 10 to 1000 nM |
| Cc1ccc2[nH]c(Cn3c(=O)c4c(nc(N[C@H]5CC[C@@H](O)C5)n4C)n(C)c3=O)cc2c1 (racemic) [Example 177, (±)-8-((cis)-3-hydroxycyclopentylamino)-3,7-dimethyl-1-((5-methyl-1H-indol-2-yl)methyl)-1H-purine-2,6(3H,7H)-dione] | 10 to 1000 nM |
| Cn1c(Nc2cccc(CCC(=O)O)c2)nc2c1c(=O)n(Cc1ccc(Cl)c(Cl)c1)c(=O)n2C [Example 291, 3-(3-(1-(3,4-dichlorobenzyl)-3,7-dimethyl-2,6-dioxo-2,3,6,7-tetrahydro-1H-purin-8-ylamino)phenyl)propanoic acid] | 10 to 1000 nM |
| Cn1c(=O)n(Cc2ccc(Cl)c(Cl)c2)c(=O)c2c1nc(NC1CCCC(C(=O)O)C1)n2CCO (centres unmarked) [Example 316, 3-(1-(3,4-dichlorobenzyl)-7-(2-hydroxyethyl)-3-methyl-2,6-dioxo-2,3,6,7-tetrahydro-1H-purin-8-ylamino)cyclohexanecarboxylic acid] | 10 to 1000 nM |
| CCn1c(=O)n(Cc2ccc3c(C)cccc3c2)c(=O)c2c1nc(C(C)N)n2C (centres unmarked) [Example 459, 8-(1-aminoethyl)-3-ethyl-7-methyl-1-((5-methylnaphthalen-2-yl)methyl)-1H-purine-2,6(3H,7H)-dione] | 10 to 1000 nM |
| Cn1c(NC2(C(=O)O)CCCC2)nc2c1c(=O)n(Cc1ccc(C(F)(F)F)cc1)c(=O)n2C [Example 149, 1-(3,7-dimethyl-2,6-dioxo-1-(4-(trifluoromethyl)benzyl)-2,3,6,7-tetrahydro-1H-purin-8-ylamino)cyclopentanecarboxylic acid] | > 10000 nM |
| Cn1c(N[C@@H]2CCCC[C@@H]2O)nc2c1c(=O)n(Cc1ccc(Cl)c(Cl)c1)c(=O)n2C (racemic) [Example 95, (±)-1-[(3,4-dichlorophenyl)methyl]-8-{[(cis)-2-hydroxycyclohexyl]amino}-3,7-dimethyl-2,3,6,7-tetrahydro-1H-purine-2,6-dione] | 1000 to 5000 nM |
| Cn1c(Nc2ccnc(CCC(=O)N3CCCCC3)n2)nc2c1c(=O)n(Cc1cc3c(Cl)cccc3[nH]1)c(=O)n2C [Example 406, 1-((4-chloro-1H-indol-2-yl)methyl)-3,7-dimethyl-8-(2-(3-oxo-3-(piperidin-1-yl)propyl)pyrimidin-4-ylamino)-1H-purine-2,6(3H,7H)-dione] | 10 to 1000 nM |
| Cn1c(Nc2ccnc([C@H]3C[C@@H]3C(N)=O)c2)nc2c1c(=O)n(Cc1ccc(Cl)c(Cl)c1)c(=O)n2C (racemic) [Example 296, (±)-trans-2-(4-((1-(3,4-Dichlorobenzyl)-3,7-dimethyl-2,6-dioxo-2,3,6,7-tetrahydro-1H-purin-8-yl)amino)pyridin-2-yl)cyclopropanecarboxamide] | 10 to 1000 nM |
| Cn1cnc2c1c(=O)n(Cc1cc3cc(C#N)ccc3[nH]1)c(=O)n2C [Example 257, 2-((3,7-dimethyl-2,6-dioxo-2,3,6,7-tetrahydro-1H-purin-1-yl)methyl)-1H-indole-5-carbonitrile] | 1000 to 5000 nM |
| C[C@H](CCO)Nc1nc2c(c(=O)n(Cc3ccc(Cl)cc3)c(=O)n2C)n1C [Example 26, 1-[(4-chlorophenyl)methyl]-8-{[(2R)-4-hydroxybutan-2-yl]amino}-3,7-dimethyl-2,3,6,7-tetrahydro-1H-purine-2,6-dione] | 1000 to 5000 nM |
| Cn1c(Nc2ccnc([C@H]3C[C@@H]3C(=O)O)c2)nc2c1c(=O)n(Cc1ccc(Cl)c(Cl)c1)c(=O)n2C (single isomer, unassigned) [Example 301, (1S,2S)-2-(4-((1-(3,4-dichlorobenzyl)-3,7-dimethyl-2,6-dioxo-2,3,6,7-tetrahydro-1H-purin-8-yl)amino)pyridin-2-yl)cyclopropanecarboxylic acid or (1R,2R)-2-(4-((1-(3,4-dichlorobenzyl)-3,7-dimethyl-2,6-dioxo-2,3,6,7-tetrahydro-1H-purin-8-yl)amino)pyridin-2-yl)cyclopropanecarboxylic acid] | 10 to 1000 nM |
| Cn1c(N[C@H]2CC[C@@H](O)C2)nc2c1c(=O)n(Cc1ccc(C(F)(F)F)cc1)c(=O)n2C (racemic) [Example 171, (±)-8-((cis)-3-hydroxycyclopentylamino)-3,7-dimethyl-1-(4-(trifluoromethyl)benzyl)-1H-purine-2,6(3H,7H)-dione] | 1000 to 5000 nM |
